Measured values published in US11780821B2, “Inhibitors of fibroblast activation protein” (Praxis Biotech LLC, priority 2017, dated 2023).
pIC50: −log10 of the molar value. Read-outs that look alike come from different tables or passages of the source.

Experiments:
[1] = biological target: T1, recombinant mouse PREP (rmPREP) (Mus musculus, UniProt Q9QUR6); assay: PREP enzymatic activity assay; assay type: biochemical; details: Z-Gly-Pro-AMC substrate
T1 construct: purchased R&S system (so in the source)
Method: 7-Amino-4-Methylcoumarin (AMC) release was detected by measuring fluorescence at Ex/Em 380/460 nm using a Multifunction Microplate Reader (Synergy 4, Biotek). All measurements were carried out in triplicate.

[2] = biological target: T2, recombinant mouse DPPIV (rmDPPIV) (Mus musculus, UniProt P28843); assay: DPPIV enzymatic activity assay; assay type: biochemical; details: H-Gly-Pro-pNA substrate
T2 construct: purchased R&S system (so in the source)

[3] = biological target: T3, recombinant mouse FAPα (rmFAPα) (Mus musculus, UniProt P97321); assay: FAPα enzymatic exopeptidase (dipeptidase) activity assay; assay type: biochemical; details: exopeptidase, read-out: rmFAPα (exo IC50)
T3 construct: purchased R&S system (so in the source)
T3 sequence (P97321 1-761): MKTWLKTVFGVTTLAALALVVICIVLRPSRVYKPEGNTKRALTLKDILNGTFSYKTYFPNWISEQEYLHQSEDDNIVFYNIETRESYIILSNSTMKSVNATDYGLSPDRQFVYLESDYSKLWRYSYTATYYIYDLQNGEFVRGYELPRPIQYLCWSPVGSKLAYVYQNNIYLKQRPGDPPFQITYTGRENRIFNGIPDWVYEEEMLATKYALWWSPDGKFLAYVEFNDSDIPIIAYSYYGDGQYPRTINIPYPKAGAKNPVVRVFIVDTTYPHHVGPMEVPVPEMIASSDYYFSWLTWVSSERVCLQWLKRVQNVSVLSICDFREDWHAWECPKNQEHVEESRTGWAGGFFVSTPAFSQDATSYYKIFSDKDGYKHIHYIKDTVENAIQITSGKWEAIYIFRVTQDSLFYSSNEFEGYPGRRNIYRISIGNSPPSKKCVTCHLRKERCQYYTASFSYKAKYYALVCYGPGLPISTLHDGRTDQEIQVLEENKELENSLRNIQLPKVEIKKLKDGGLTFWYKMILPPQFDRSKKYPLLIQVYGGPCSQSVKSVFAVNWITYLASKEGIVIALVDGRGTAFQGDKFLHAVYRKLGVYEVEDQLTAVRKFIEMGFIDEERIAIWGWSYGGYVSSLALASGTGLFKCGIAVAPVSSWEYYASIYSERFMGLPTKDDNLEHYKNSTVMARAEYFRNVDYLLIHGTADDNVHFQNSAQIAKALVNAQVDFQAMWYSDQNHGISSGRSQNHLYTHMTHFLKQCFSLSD

[4] = biological target: T4, circulating FAPα from hamster plasma (Mesocricetus auratus, UniProt A0ABM2XF29); assay: Ex vivo inhibition of circulating FAPα activity from hamster plasma; assay type: biochemical, Golden Syrian hamster
T4 sequence (A0ABM2XF29 24-761): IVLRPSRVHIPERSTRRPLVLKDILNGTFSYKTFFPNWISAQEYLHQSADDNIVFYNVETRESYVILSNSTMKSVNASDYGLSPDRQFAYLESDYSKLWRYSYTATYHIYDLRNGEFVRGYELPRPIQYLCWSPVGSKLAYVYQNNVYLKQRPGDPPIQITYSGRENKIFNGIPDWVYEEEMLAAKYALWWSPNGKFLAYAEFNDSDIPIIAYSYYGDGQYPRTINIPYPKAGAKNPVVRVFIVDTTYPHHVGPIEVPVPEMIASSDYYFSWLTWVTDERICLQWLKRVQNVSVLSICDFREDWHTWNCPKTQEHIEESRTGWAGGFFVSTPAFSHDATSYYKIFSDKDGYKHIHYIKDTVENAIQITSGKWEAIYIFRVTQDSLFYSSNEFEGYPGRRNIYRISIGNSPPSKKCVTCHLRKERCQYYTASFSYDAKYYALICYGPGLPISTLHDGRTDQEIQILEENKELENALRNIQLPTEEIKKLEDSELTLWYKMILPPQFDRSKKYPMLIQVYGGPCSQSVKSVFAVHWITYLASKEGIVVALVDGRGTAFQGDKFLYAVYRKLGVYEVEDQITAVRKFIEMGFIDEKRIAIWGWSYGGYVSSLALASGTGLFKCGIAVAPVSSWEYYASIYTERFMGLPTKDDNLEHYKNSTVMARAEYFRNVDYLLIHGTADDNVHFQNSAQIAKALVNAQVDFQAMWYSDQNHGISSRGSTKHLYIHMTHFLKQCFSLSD
Method: Male Golden Syrian hamsters were provided by National Laboratory Animal Center (NLAC) in Taiwan. The animals were maintained in a hygienic environment under controlled temperature (20-24° C.) and humidity (50%-80%) with 12 hours light/dark cycles. Free access to standard lab diet [MFG (Oriental Yeast Co., Ltd. Japan)] and autoclaved tap water were granted. All aspects of this work including housing, experimentation and disposal of animals were performed in general accordance with the “Guide for the Care and Use of Laboratory Animals: Eighth Edition” (National Academies Press, Washington, D.C., 2011). In addition, the animal care and use protocol was reviewed and approved by the IACUC at Pharmacology Discovery Services Taiwan, Ltd. Immediately after the sacrifice of hamsters, blood samples were collected via terminal cardiac puncture in tubes coated with EDTA-K2, mixed gently, then kept on ice and centrifuged at 2,500×g for 15 minutes at 4° C. After plasma separation, samples were stored at −80° C. in aliquots of 300 μL.
To assay exemplary compounds in hamster plasma, a similar protocol as described for human plasma was performed diluting thawed plasma 1:2 in cFAP buffer. In a 96-well black plate, 5 μl of diluted hamster plasma were mixed with 35 μl of the same buffer and 10 μl of exemplary test compounds at different concentrations or vehicle (DMSO).
Exemplary test compounds were allowed to interact with the enzyme for 15 minutes at 37° C. After pre-incubation, 50 μl of 200 μM PRXS-AMC substrate were added to the all mixtures. All reactions were carried out for 1 h at 37° C. protected from light. AMC release was detected measuring fluorescence at an excitation/emission wavelength of 380/460 nm using a Multifunction Microplate Reader. All measurements were carried out as single point.

[5] = biological target: T3, recombinant mouse FAPα (rmFAPα); assay: FAPα enzymatic exopeptidase (dipeptidase) activity assay; assay type: biochemical; details: 1 μM test compound; Z-Gly-Pro-AMC substrate; read-out: rmFAPα (% exo inh @ 1 μM)
Method: FAPα enzymatic exopeptidase (dipeptidase) activity assay. […] 7-Amino-4-Methylcoumarin (AMC) release was detected by measuring fluorescence at Ex/Em 380/460 nm using a Multifunction Microplate Reader (Synergy 4, Biotek). All measurements were carried out in duplicate. […] For the calculations, the average measurements from reactions containing only vehicle and substrate, without enzyme, were used as a blank and were subtracted from the rest of the measurements. Percent inhibition was calculated using the average measurements from reactions containing vehicle, enzyme, and substrate as the maximum of enzymatic activity. Measurements were performed as a single point.

[6] = read-out: FAPα activity in hamster plasma (PRXS-AMC) IC50, PRXS-AMC substrate
[7] = PRXS-AMC substrate, read-out: FAPα activity in hamster plasma (PRXS-AMC) IC50

T2 sequence (P28843 whole entry): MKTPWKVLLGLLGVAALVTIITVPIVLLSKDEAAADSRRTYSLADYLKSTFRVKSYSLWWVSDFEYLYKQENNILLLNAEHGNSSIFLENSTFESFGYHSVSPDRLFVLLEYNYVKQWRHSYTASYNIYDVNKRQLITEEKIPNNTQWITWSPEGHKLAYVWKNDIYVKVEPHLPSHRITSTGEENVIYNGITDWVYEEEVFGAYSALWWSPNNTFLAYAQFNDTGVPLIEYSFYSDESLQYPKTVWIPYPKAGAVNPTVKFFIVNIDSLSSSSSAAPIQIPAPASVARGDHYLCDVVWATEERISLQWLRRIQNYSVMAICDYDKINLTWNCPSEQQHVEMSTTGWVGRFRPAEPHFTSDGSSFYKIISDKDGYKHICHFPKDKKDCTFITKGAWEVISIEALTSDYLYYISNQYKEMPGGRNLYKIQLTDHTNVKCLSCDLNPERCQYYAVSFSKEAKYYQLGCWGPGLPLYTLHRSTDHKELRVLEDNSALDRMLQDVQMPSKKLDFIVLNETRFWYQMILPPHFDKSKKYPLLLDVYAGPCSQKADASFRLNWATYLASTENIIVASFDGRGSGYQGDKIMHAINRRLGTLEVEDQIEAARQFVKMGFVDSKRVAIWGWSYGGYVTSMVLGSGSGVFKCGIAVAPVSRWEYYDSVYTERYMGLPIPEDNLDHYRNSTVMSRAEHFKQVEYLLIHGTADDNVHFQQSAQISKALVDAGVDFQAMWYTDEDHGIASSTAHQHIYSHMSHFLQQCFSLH
T1 sequence (Q9QUR6 whole entry): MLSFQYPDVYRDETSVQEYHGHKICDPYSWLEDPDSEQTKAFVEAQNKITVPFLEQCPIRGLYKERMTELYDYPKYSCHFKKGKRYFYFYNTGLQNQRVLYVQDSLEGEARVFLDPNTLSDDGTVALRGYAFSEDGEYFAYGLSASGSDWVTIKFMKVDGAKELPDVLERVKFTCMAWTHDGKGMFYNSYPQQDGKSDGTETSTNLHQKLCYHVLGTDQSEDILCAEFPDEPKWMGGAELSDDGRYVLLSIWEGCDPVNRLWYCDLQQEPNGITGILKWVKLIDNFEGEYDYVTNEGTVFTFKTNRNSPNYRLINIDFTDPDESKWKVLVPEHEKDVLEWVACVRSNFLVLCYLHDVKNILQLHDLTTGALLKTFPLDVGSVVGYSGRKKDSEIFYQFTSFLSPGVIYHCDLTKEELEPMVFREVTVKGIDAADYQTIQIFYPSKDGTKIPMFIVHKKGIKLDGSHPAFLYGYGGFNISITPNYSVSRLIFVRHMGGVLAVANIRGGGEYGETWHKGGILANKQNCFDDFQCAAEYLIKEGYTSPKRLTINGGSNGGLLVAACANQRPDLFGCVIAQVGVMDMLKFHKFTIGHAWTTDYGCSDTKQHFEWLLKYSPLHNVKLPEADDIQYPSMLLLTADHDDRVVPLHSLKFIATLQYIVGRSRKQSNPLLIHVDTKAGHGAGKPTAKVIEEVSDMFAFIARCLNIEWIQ

| pIC50 [1] | pIC50 [2] | SMILES | pIC50 ([3]; Table 2, Z-Gly-Pro-AMC) | pIC50 ([3]; Table 3) | pIC50 [4, 6] | also measured |
| --- | --- | --- | --- | --- | --- | --- |
| < 5.00 | < 5.00 | N#C[C@@H]1CC(F)(F)CN1C(=O)CNC(=O)c1c[nH]c(=O)c(-c2ccccc2)c1 [Compound 14, (S)—N-(2-(2-cyano-4,4-difluoropyrrolidin-1-yl)-2-oxoethyl)-6-oxo-5-phenyl-1,6-dihydropyridine-3-carboxamide] |  |  |  |  |
|  |  | C=C(c1ccccc1)c1cnccc1C(=O)NCC(=O)N1CC(F)(F)C[C@H]1C#N [Compound 122, (S)—N-(2-(2-cyano-4,4-difluoropyrrolidin-1-yl)-2-oxoethyl)-3-(1-phenylvinyl)isonicotinamide] |  |  |  | pIC50 [4, 7]: > 6.00 |
|  |  | N#C[C@@H]1CC(F)(F)CN1C(=O)CNC(=O)c1ccncc1C1=CCNCC1 [Compound 105, (S)—N-(2-(2-cyano-4,4-difluoropyrrolidin-1-yl)-2-oxoethyl)-1′,2′,3′,6′-tetrahydro-[3,4′-bipyridine]-4-carboxamide 2,2,2-trifluoroacetate] |  |  | > 6.00 |  |
|  |  | N#C[C@@H]1CC(F)(F)CN1C(=O)CNC(=O)c1ccncc1C1CC1 [Compound 24, (S)—N-(2-(2-cyano-4,4-difluoropyrrolidin-1-yl)-2-oxoethyl)-3-cyclopropylisonicotinamide] | > 6.00 | > 6.00 | > 6.00 |  |
|  |  | N#C[C@@H]1CC(F)(F)CN1C(=O)CNC(=O)c1ccncc1N1CCOCC1 [Compound 88, N-[2-[(2S)-2-cyano-4,4-difluoro-pyrrolidin-1-yl]-2-oxo-ethyl]-3-morpholino-pyridine-4-carboxamide] |  | > 6.00 |  |  |
| 5.00 to 6.00 | 5.00 to 6.00 | N#C[C@@H]1CC(F)(F)CN1C(=O)CNC(=O)c1c[nH]c(=O)c2ccccc12 [Example 1, (S)—N-(2-(2-cyano-4,4-difluoropyrrolidin-1-yl)-2-oxoethyl)-1-oxo-1,2-dihydroisoquinoline-4-carboxamide] | > 6.00 | > 6.00 |  | inhibition at 1 µM [5]: > 50% |
|  |  | N#C[C@@H]1CC(F)(F)CN1C(=O)CNC(=O)c1c[nH]c(=O)cc1-c1ccc(F)cc1 [Compound 109, (S)—N-(2-(2-cyano-4,4-difluoropyrrolidin-1-yl)-2-oxoethyl)-4-(4-fluorophenyl)-6-oxo-1,6-dihydropyridine-3-carboxamide] |  |  |  | pIC50 [4, 7]: > 6.00 |
|  |  | N#C[C@@H]1CC(F)(F)CN1C(=O)CNC(=O)c1ccncc1-c1ccc(F)cc1 [Compound 52, (S)—N-(2-(2-cyano-4,4-difluoropyrrolidin-1-yl)-2-oxoethyl)-3-(4-fluorophenyl)isonicotinamide] | > 6.00 | > 6.00 | > 6.00 |  |

| SMILES | pIC50 [1] | pIC50 [2] | pIC50 ([3]; Table 2, Z-Gly-Pro-AMC) | pIC50 ([3]; Table 3) | pIC50 [4, 6] | also measured |
| --- | --- | --- | --- | --- | --- | --- |
| N#C[C@@H]1CC(F)(F)CN1C(=O)CNC(=O)c1ccncc1-c1ccccc1 [Compound 13, (S)—N-(2-(2-cyano-4,4-difluoropyrrolidin-1-yl)-2-oxoethyl)-3-phenylisonicotinamide] | < 5.00 | < 5.00 | > 6.00 | > 6.00 | > 6.00 |  |
